Laboratory results published in patent publication US9814699B2, “Chemical compounds” (Janssen Pharmaceuticals, Inc., priority 2009, dated 2017).

How the values were obtained:
[1] = test system: HCV genotype 1a subgenomic replicon; test: HCV replicon assay, genotype 1a subgenomic replicon (luciferase); format: cell-based; settings: Hepatitis C virus; genotype 1a replicon stable cell line, luciferase activity measured 48 hours later; read-out: Replicon 1A pEC50 (converted)
Description: (§1) Protocol for Testing and Data Analysis of Compounds in the HCV Replicon Assay
(§2) Compounds were assayed for activity against HCV using the genotype 1a and 1b subgenomic replicon model systems. Stable cell lines bearing the genotype 1a and 1b replicons were used for screening of compounds. Both replicons are bicistronic and contain the firefly luciferase gene. The ET cell line is stably transfected with RNA transcripts harboring a I389luc-ubi-neo/NS3-3′/ET replicon with firefly luciferase-ubiquitin-neomycin phosphotransferase fusion protein and EMCV-IRES driven NS3-5B polyprotein containing the cell culture adaptive mutations (E1202G; T1280I; K1846T) (Krieger at al, 2001 and unpublished). The genotype 1a replicon is a stable cell line licensed from Apath LLC, modified to contain the firefly luciferase gene. The cells were grown in DMEM, supplemented with 10% fetal calf serum, 2 mM Glutamine, Penicillin (100 IU/mL)/Streptomycin (100 μg/mL), 1× nonessential amino acids, and 250-500 μg/mL G418 (“Geneticin”). They were all available through Life Technologies (Bethesda, Md.). The cells were plated at 5×10^3 cells/well in 384 well plates containing compounds. The final concentration of compounds ranged between 0.03 pM to 50 μm and the final DMSO concentration of 0.5-1%.
(§3) Luciferase activity was measured 48 hours later by adding a Steady glo reagent (Promega, Madison, Wis.). Percent inhibition of replication data was plotted relative to no compound control. Under the same condition, cytotoxicity of the compounds was determined using cell titer glo (Promega, Madison, Ws). EC50s were determined from an 11 point dose response curve using 3-4-fold serial dilution for each compound, which spans a concentration range >1000 fold. The level of inhibition for each compound was determined with Activity Base or with BioAssay plus the Excel XC50 module. Percent inhibition was determined with the following equation where the cross-talk corrected value is the value from the test well, the compound positive control mean is the average value of the wells with no compound present, and the DMSO negative control mean is the average value of the wells with DMSO but no cells present.
(§4) [formula] These normalized values are exported to EC50 where they are plotted against the molar compound concentrations using the standard four parameter logistic equation: […]

[2] = test system: HCV genotype 1b subgenomic replicon; test: HCV replicon assay, genotype 1b subgenomic replicon (ET cell line, luciferase); format: cell-based; settings: Hepatitis C virus; genotype 1b replicon ET cell line, luciferase activity measured 48 hours later; read-out: Replicon 1B pEC50 (converted)
Description: as §1, §2, §3, §4

## CC[C@H](NC(=O)OC)C(=O)N1CC2(C[C@H]1c1nc(-c3ccc(-c4ccc(-c5c[nH]c([C@@H]6CCCN6C(=O)[C@@H](NC(=O)OC)C(C)C)n5)cc4)cc3)c[nH]1)SCCS2 [Example 13, methyl[(1S)-2-methyl-1-({(2S)-2-[4-(4′-{2-[(8S)-7-((2S)-2-{[(methyloxy)carbonyl]amino}butanoyl)-1,4-dithia-7-azaspiro[4.4]non-8-yl]-1H-imidazol-4-yl}-4-biphenylyl)-1H-imidazol-2-yl]-1-pyrrolidinyl}carbonyl)propyl]carbamate]
[1]
  EC50: 63.1 pM
[2]
  EC50: 3.98 pM

## COC(=O)N[C@@H](C)C(=O)N1C(c2nc(-c3ccc(-c4ccc(-c5cnc([C@@H]6CCCN6C(=O)[C@@H](NC(=O)OC)C(C)C)[nH]5)cc4)cc3)c[nH]2)CCC12CCC(F)(F)CC2 (stereo partly drawn) [Example 34, methyl ((1S)-2-{8,8-difluoro-2-[4-(4′-{2-[(2S)-1-((2S)-3-methyl-2-{[(methyloxy)carbonyl]amino}butanoyl)-2-pyrrolidinyl]-1H-imidazol-4-yl}-4-biphenylyl)-1H-imidazol-2-yl]-1-azaspiro[4.5]dec-1-yl}-1-methyl-2-oxoethyl)carbamate]
[1]
  EC50: 631 pM
[2]
  EC50: 10 pM

## COC(=O)N[C@H](C(=O)N1CCC[C@H]1c1ncc(-c2ccc(-c3ccc(-c4cnc([C@@H]5CC6(CN5C(=O)[C@@H](NC(=O)OC)C(C)C)OCCO6)[nH]4)cc3)cc2)[nH]1)C(C)C [Example 2, methyl [(1S)-2-methyl-1-({(2S)-2-[4-(4′-{2-[(8S)-7-((2S)-3-methyl-2-{[(methyloxy)carbonyl]amino}butanoyl)-1,4-dioxa-7-azaspiro[4.4]non-8-yl]-1H-imidazol-4-yl}-4-biphenylyl)-1H-imidazol-2-yl]-1-pyrrolidinyl}carbonyl)propyl]carbamate]
[1]
  EC50: 39.8 pM
[2]
  EC50: 7.94 pM

## COC(=O)N[C@H](C(=O)N1CCC[C@H]1c1ncc(-c2ccc(-c3ccc(-c4cnc([C@@H]5CC6(CN5C(=O)[C@@H](NC(=O)OC)C(C)C)O[C@H](C)[C@@H](C)O6)[nH]4)cc3)cc2)[nH]1)C(C)C [Example 10, methyl [(1S)-1-({(2S)-2-[4-(4′-{2-[(2R,3R,8S)-2,3-dimethyl-7-((2S)-3-methyl-2-{[(methyloxy)carbonyl]amino}butanoyl)-1,4-dioxa-7-azaspiro[4.4]non-8-yl]-1H-imidazol-5-yl}-4-biphenylyl)-1H-imidazol-2-yl]-1-pyrrolidinyl}carbonyl)-2-methylpropyl]carbamate]
[1]
  EC50: 2000 pM
[2]
  EC50: 10 pM

## COC(=O)N[C@@H](CC(C)C)C(=O)N1C(c2nc(-c3ccc(-c4ccc(-c5cnc([C@@H]6CCCN6C(=O)[C@@H](NC(=O)OC)C(C)C)[nH]5)cc4)cc3)c[nH]2)CCC12CCC(F)(F)CC2 (stereo partly drawn) [Example 35, methyl [(1S)-1-({8,8-difluoro-2-[4-(4′-{2-[(2S)-1-((2S)-3-methyl-2-{[(methyloxy)carbonyl]amino}butanoyl)-2-pyrrolidinyl]-1H-imidazol-4-yl}-4-biphenylyl)-1H-imidazol-2-yl]-1-azaspiro[4.5]dec-1-yl}carbonyl)-3-methylbutyl]carbamate]
[1]
  EC50: 2000 pM
[2]
  EC50: 12.6 pM

## COC(=O)N[C@H](C(=O)N1CC2(CCN(C(C)=O)CC2)CC1c1ncc(-c2ccc(-c3ccc(-c4cnc([C@@H]5CCCN5C(=O)[C@@H](NC(=O)OC)C(C)C)[nH]4)cc3)cc2)[nH]1)C(C)C (stereo partly drawn) [Example 21, methyl [(1S)-1-({(2S)-2-[4-(4′-{2-[8-acetyl-2-((2S)-3-methyl-2-{[(methyloxy)carbonyl]amino}butanoyl)-2,8-diazaspiro[4.5]dec-3-yl]-1H-imidazol-4-yl}-4-biphenylyl)-1H-imidazol-2-yl]-1-pyrrolidinyl}carbonyl)-2-methylpropyl]carbamate]
[1]
  EC50: 10000 pM
[2]
  EC50: 200 pM
